{"source": "patent US20240423948A1", "about": "“5-HYDROXYMETHYLFURFURAL FOR THE TREATMENT OF MITOCHONDRIAL DYSFUNCTION” (D-CAP LLC, priority 2021, published 2024)", "format_in_all_cases": "cell-based, murine", "key": {"Hepa1-6 cell line [1]": {"test_system": "Hepa1-6 cell line", "assay": "ATP content (CellTiter-Glo Assay)", "conditions": "for ATP levels: single agent, 24 h, lower (0.1-100 μM) and higher dose range, FIG. 1A and 1D", "method": "Cell culture: The Hepa1-6 cell line (#CRL-1830, ATCC) was cultured in DMEM culture medium containing 1 g/L glucose, 10% fetal bovine serum, 2 mM glutamine, 100 U/mL Penicillin and 100 μg/mL Streptomycin and 30 μM oleic acid. Cells were seeded at a density of 20 000 cells per well in 96 well plates and incubated for overnight to allow the cells to attach at 37° C. with 5% CO2. Cells were then supplemented with the test substances at indicated concentrations and incubated for indicated time periods (24 h). For all assays the test substances were diluted in 10% DMSO/PBS further diluted with culture medium and added to the cells at the indicated concentrations with a final DMSO concentration of 0.01%. Vehicle controls were treated with 0.01% DMSO. ATP content: Cells were treated for 24 h with the test substances at the indicated concentrations. The cellular ATP content was assessed using the CellTiter-Glo Assay (#G7571, Promega) as per the manufacturer's instructions. Luminescence was detected in a plate reader spectrophotometer. The results were normalized to the luminescence intensity measured in vehicle treated cells and positive controls treated with 0.1% Triton-X, as well as 10 μM FCCP and 1 μM oligomycin. Flat, white bottom plate."}, "Hepa1-6 cell line [2]": {"test_system": "Hepa1-6 cell line", "assay": "Mitochondrial reactive oxygen species (MitoSOX Red)", "conditions": "for MitoSOX levels: 24 h", "method": "Cell culture: The Hepa1-6 cell line (#CRL-1830, ATCC) was cultured in DMEM culture medium containing 1 g/L glucose, 10% fetal bovine serum, 2 mM glutamine, 100 U/mL Penicillin and 100 μg/mL Streptomycin and 30 μM oleic acid. Cells were seeded at a density of 20 000 cells per well in 96 well plates and incubated for overnight to allow the cells to attach at 37° C. with 5% CO2. Cells were then supplemented with the test substances at indicated concentrations and incubated for indicated time periods (24 h). For all assays the test substances were diluted in 10% DMSO/PBS further diluted with culture medium and added to the cells at the indicated concentrations with a final DMSO concentration of 0.01%. Vehicle controls were treated with 0.01% DMSO. Mitochondrial reactive oxygen species (ROS); Cells were treated for 24 h with the test substances at the indicated concentration, as well as positive (10 μM FCCP and 1 μM oligomycin) and negative control. Mitochondrial ROS was detected using MitoSOX™ Red mitochondrial superoxide indicator (#M36008, Invitrogen/Thermo Fisher Scientific). After 24 h treatment of the substances, cells were washed with 100 μl assay buffer (DMEM without phenol red with 4 mM L-glutamine, 4.5 g/L glucose and 1 mM Na-Pyruvate, pH7.4) three times, and 100 μl of […] MitoSOX Red (5 mM MitoSOX™ Red stock solution prepared as indicated by the manufacturer's instruction diluted in 1:2 500 in assay buffer) was added per well, followed by incubation for 30min at 37° C. with 5% CO2. After the incubation cells were washed with 100 μl assay buffer and 100 μl assay buffer was added per well. Fluorescence was measured at excitation 510 nm and emission 580 nm. Use flat, black bottom plates were used."}, "Hepa1-6 cell line [3]": {"test_system": "Hepa1-6 cell line", "assay": "Cytotoxicity (CyQuant LDH Cytotoxicity Assay)", "conditions": "single agent, 24 h, lower and higher dose range, FIG. 1C and 1F", "method": "Cells were seeded at a density of 20 000 cells per well in 96 well plates and incubated for overnight to allow the cells to attach at 37° C. with 5% CO2. Cells were then supplemented with the test substances at indicated concentrations and incubated for indicated time periods (24 h). For all assays the test substances were diluted in 10% DMSO/PBS further diluted with culture medium and added to the cells at the indicated concentrations with a final DMSO concentration of 0.01%. Vehicle controls were treated with 0.01% DMSO. Cytotoxicity: Cytotoxicity was assessed using the CyQuant™ LDH Cytotoxicity Assay Kit (#C20300/C20301, Thermo Fisher). After cells were cultured with the test substances for 24 h, 50 μL of the cell culture medium were transferred to a new 96 well plate and the cytotoxicity assay was performed as per the manufacturer's instructions. Absorbance was measured at 490 nm and background at 680 nm. The signal intensity of untreated cells was considered as the background signal of spontaneous LDH release and subtracted from all measurements. Cytotoxicity was expressed as the percentage of maximum signal intensity observed in freshly lysed cells. Flat, clear plate. 10 μM FCCP, 1 μM oligomycin, 0.1% Triton X as positive control."}, "[4]": {"conditions": "single agent, lower and higher dose range, FIG. 1B and 1E"}}, "data": [{"compound": "O=Cc1ccc(CO)o1", "note": "[5-HMF, 5-Hydroxymethylfurfural]", "values": [{"measurement": "effect on mitochondrial function (ATP levels) compared with metformin", "setting": "Hepa1-6 cell line [1]; FIG. 1 legend, overall", "value": "comparable to that of metformin"}, {"measurement": "effect on mitochondrial function (ATP levels) compared with metformin", "setting": "Hepa1-6 cell line [1]; lower dose range (physiological doses of Metformin), FIG. 1A", "value": "milder than that of Metformin"}, {"measurement": "ATP levels", "setting": "Hepa1-6 cell line [1]", "value": "ATP reduction"}, {"measurement": "effect on mitochondrial function (mitochondrial ROS levels) compared with metformin", "setting": "Hepa1-6 cell line [2]; FIG. 1 legend, overall", "value": "comparable to that of metformin"}, {"measurement": "effect on mitochondrial function (MitoSOX) compared with Metformin", "setting": "Hepa1-6 cell line [2]; lower dose range (physiological doses of Metformin), FIG. 1B", "value": "milder than that of Metformin"}, {"measurement": "MitoSOX levels", "setting": "Hepa1-6 cell line [2]; [4]", "value": "trend of slight increase of MitoSOX levels"}, {"measurement": "cytotoxicity (LDH)", "setting": "Hepa1-6 cell line [3]", "value": "without cytotoxic effects"}]}, {"compound": "CN(C)C(=N)N=C(N)N", "note": "[Metformin, reference compound]", "values": [{"measurement": "ATP levels", "setting": "Hepa1-6 cell line [1]", "value": "ATP reduction"}, {"measurement": "MitoSOX levels", "setting": "Hepa1-6 cell line [2]; [4]", "value": "trend of slight increase of MitoSOX levels"}, {"measurement": "cytotoxicity (LDH)", "setting": "Hepa1-6 cell line [3]", "value": "without cytotoxic effects"}]}, {"compound": "CC[C@H]1/C=C/C=C/C[C@@H](C)[C@H](O)[C@@](C)(O)C(=O)[C@@H](C)[C@H](O)[C@@H](C)C(=O)[C@@H](C)[C@H](O)[C@@H](C)/C=C/C(=O)O[C@@H]2[C@H](C)[C@H](CC1)O[C@]1(CC[C@H](C)[C@H](C[C@@H](C)O)O1)[C@H]2C", "note": "[oligomycin, reference compound]", "values": [{"measurement": "MitoSOX levels", "setting": "Hepa1-6 cell line [2]; positive control, 1 μM oligomycin", "value": "no statistically significance"}]}]}
